In patent US11149047B2, “Aryl imidazoles for treatment of cancer” (Aptose Biosciences Inc., priority 2017, dated 2021):

Tests used:
[1] = test system: MCF10A BRCA1-het #1 and #2 clones vs control; test: Sensitivity of BRCA1-proficient and -deficient isogenic clones; format: cell-based, human; conditions: FIG. 3A
Description: (§1) Cells were plated and treated with the indicated drugs in 96-well plates for 5 days. Cell viability was measured using CellTiter 96 AQueous one solution (MTS) cell proliferation assay purchased from Promega, and IC50 values were calculated using GraphPad Prism 6 Software.
(§2) The finding that COMPOUND I produced DNA damage led to the investigation of whether cells deficient in homologous recombination were hypersensitive to this drug. The hypothesis that there would be synthetic lethality between COMPOUND I and BRCA1 deficiency using isogenic pairs of BRCA1-proficient and -deficient human cell lines was tested. […] The conclusion that BRCA1-deficient cells are hypersensitive to COMPOUND I was further supported by the results obtained in MCF7 E7 cells in which BRCA1 expression is stably knocked down by the expression of an shRNAi. […] Whether BRCA2-deficient cells are more sensitive to COMPOUND I was tested using the BRCA2-proficient and BRCA2-deficient ovarian cancer cell lines, PEO4 and PEO1, respectively. PEO1 is BRCA2-deficient and sensitive to cisplatin and a poly(ADP-ribose) polymerase inhibitor AG14361. PEO4 was derived from ascites at the time of relapse with cisplatin resistance and contains a secondary mutation that restores BRCA2 function. […] Thus, loss of either BRCA1 or BRCA2 function renders malignant cells hypersensitive to COMPOUND I.

[2] = test system: hTERT-IMEC BRCA1 knock-in clone; test: as above; format: cell-based, human; conditions: FIG. 3B
Description: as §1, §2

[3] = test system: MV4-11, EOL1, or KG-1 cells; test: Detection of reactive oxygen species (molecular sensors, GSH changes); format: cell-based
Excerpt: In addition, cells harboring BRCA1/2 mutations are hypersensitive to COMPOUND I, further supporting a role for DNA damage in COMPOUND I mechanism of action. COMPOUND I consistently produced upregulation of CDKN1A, which mediates arrest in G0-G1. In addition, CDKN1A can be induced after DNA double-strand breaks to block cell-cycle progression to allow for sufficient time to repair DNA. In combination with CDKN1A induction, COMPOUND I increased KLF4 gene expression in many AML cell lines, which is known to regulate CDKN1A as part of the G1 cell-cycle checkpoint. […] The role of KLF4 in COMPOUND I mechanism of action is of interest for future studies.

SKM-1 = test: Cytotoxicity study (MTS), 5 days; format: cell-based; conditions: Homo sapiens, AML
Description: EOL-1, GRANTA-519, Jeko-1, Jurkat, Molm-13, NOMO-1, SKM-1, and SU-DHL-6 were obtained from Leibniz-Institut DSMZ. HL-60, KG-1, Mino, MV4-11, Raji, and THP-1 were obtained from ATCC. HEL92.1.7 were obtained from the European Collection of Authenticated Cell Cultures and Ramos cells were a gift from Dr. M. Andreeff (MD Anderson Cancer Center, Houston, Tex.). All cells were cultured in complete media as per the manufacturer's instructions. Early passage cells were collected and frozen within 1 month of receipt from the manufacturer. All experiments were performed on early passage cells within 6 weeks of thawing. MycoScope Mycoplasma Detection Kit (Genlantis catalog #MY01050) was used to screen for potential contamination every 6 months. Peripheral blood mononuclear cells (PBMC) were isolated from fresh healthy donor blood using Ficoll-Paque PLUS (GE Healthcare, catalog #17-1440-02). For synthesis of COMPOUND I free base, 10-phenanthroline-5,6-dione (1.2 equivalents), acetic acid (22 volumes), 2-methyl-5-fluoroindole-3-carboxaldehyde (1.0 equivalents), and ammonium acetate (15 equivalents) were reacted under medium agitation while heated at 95±5° C. for 3 to 7 hours. The reaction was cooled to between 20° C. and 25° C., filtered, rinsed with acetic acid and ethanol, and dried with N2 purge, followed by a wash with 2:1 ethanol:water at 65° C. for 4 hours, cooling to 20° C. to 25° C., filtration, rinsing with 2:1 ethanol:water and EtOAc, and then dried with N2 purge. The purity by HPLC was 99.5%, and the structural identity was confirmed by FT-IR, ^1HNMR, ^13C NMR, and LC/MS. For Fe(COMPOUND I)3 synthesis, five molar equivalents of ferrous ion FeSO4 in water was added to COMPOUND I dissolved in ethanol. The deep red precipitate produced, Fe(COMPOUND I)3, was collected and dissolved in DMSO and characterized by HPLC and mass spectrometry as >95% pure. CX-5461 (7) was purchased from MedChem Express (catalog #HY-13323).
Cells were plated and treated with vehicle DMSO or COMPOUND I (10 concentrations) in 96-well plates for 5 days at 37° C. and 5% CO2. Cell viability was measured using CellTiter 96 AQueous one solution (MTS) cell proliferation assay (Promega, catalog #G3581), and IC50 values were calculated using GraphPad Prism 7 software.

ds-DNA = test: Modified FRET assay with ds-DNA hairpin oligo; format: binding
Description: FRET assay and data analysis was performed as described previously and modified by using dual labeled (5′ FAM-3′ BHQ1) single-stranded oligos. Melting temperature of each oligo was assessed in the presence of vehicle DMSO or escalating concentrations of COMPOUND I, Fe(COMPOUND I)3, CX-5461, or TMPyP4 using a Roche LightCycler 96 [at 37° C. for 300 seconds followed by temperature increased in […] intervals up to 91° C. (25 steps) with 300-second total incubation time at each temperature]. Drug and oligo reaction mixes were analyzed immediately or incubated for 6 hours at room temperature and then analyzed. […] COMPOUND I data are presented for 6-hour time point.
To assess selectivity for G4 structures over nonspecific interactions with ds-DNA, the FRET assay was repeated with a self-complimentary oligo that forms a ds-DNA hairpin in solution. […] The lack of effect on 45 s rRNA may reflect differences in availability of COMPOUND I and/or Fe(COMPOUND I)3 into the rRNA-rich nucleolar region of the nucleus. Nevertheless, COMPOUND I clearly can stabilize G4 structures, which provides an explanation for the inhibition of the expression of MYC and other genes. […]

Cc1[nH]c2ccc(F)cc2c1-c1nc2c3cccnc3c3ncccc3c2[nH]1 [COMPOUND I, 2-(5-fluoro-2-methyl-1H-indol-3-yl)-1H-imidazo[4,5-f][1,10]phenanthroline]
sensitivity of BRCA1-het knockin clones vs control [1]: even more hypersensitive
sensitivity of BRCA1 2-bp knock-in clone [2]: hypersensitive to both olaparib and COMPOUND I
generation of reactive oxygen species [3]: no such species have been detected
IC50 (SKM-1): 0.48 µM
interaction with dsDNA (ds-DNA): did not interact with dsDNA
